These results are taken from ChEMBL document CHEMBL3400123, “Discovery of 1,3-dihydro-2,1,3-benzothiadiazole 2,2-dioxide analogs as new RORC modulators” (Bioorg Med Chem Lett, 2015).

Structures are written as SMILES. ≈ marks a conversion by molar mass, not a printed value.

The data set can be described thus: Solubility in pH 6.8 buffer by high throughput solubility assay. Type of data set: physicochemical.
In the case of `CCC(CC)c1ccc(CN2c3ccccc3N(CCCC(=O)N3CCCC3)S2(=O)=O)cc1`, the solubility amounted to 0.6 µg/mL (≈ 1.28 µM).
The figure for `O=C(CCCN1c2ccccc2N(Cc2ccc(C(O)C(F)(F)F)cc2)S1(=O)=O)N1CCCC1` (stereo not drawn) is 5.7 µg/mL (≈ 11.5 µM).
Regarding `O=C(CCCN1c2ccccc2N(Cc2ccc(C(O)(C(F)(F)F)C(F)(F)F)cc2)S1(=O)=O)N1CCCC1`, the concentration in solution (solubility) came to 0.45 µg/mL (≈ 0.796 µM).
